Reference: US20260327255A1, “LIGAND-DIRECTED COVALENT MODIFICATION OF AMINO ACID SIDE CHAINS USING CYCLIC IMINE MANNICH ELECTROPHILES” (Purdue Research Foundation, priority 2022, published 2026)
Positions count from the first letter of the chain named. Where a SMILES comes first, the peptide text is derived from it. [ ]: non-standard residue; d: D form. The star is where a group is joined. Benzoyl(4-OPh) = O=C(c1ccc(Oc2ccccc2)cc1)*; Lys(Et2) = CCN(CC)CCCC[C@H](N)C(=O)O; Gly(cPent) = N[C@H](C(=O)O)C1CCCC1

Assays:
[1] = tested on: HOXA9 gene expression in THP1 cells; assay: qRT-PCR analysis of HOXA9 gene expression in THP1 cells; type: cell-based
Protocol: FIG. 14 Cellular activity of covalent, cyclic imine inhibitors to CBX8. qRT-PCR analysis of HOXA9 gene expression in THP1 cells after 48 h of compound treatment at the indicated dose. N=3. Error bars represent s.d. Statistical significance determined by Student's T test. *=p<0.05, **=p<0.01, ***=p<0.001, ****=p<0.0001.
FIG. 15 Cellular activity of covalent, cyclic imine inhibitors to CBX8. (A) qRT-PCR analysis of HOXA9 gene expression in THP1 cells after 48 h of compound treatment at the indicated dose. N=3. Error bars represent s.d. Statistical significance calculated using student's t-test. **=p<0.01, ****=p<0.0001. (B) qRT-PCR analysis of HOXA9 gene expression in THP1 cells treated with increasing doses of compound for 48 h. N=3. Error bars represent s.d.
Imine inhibitors were assessed for improved cellular activity using a disease-relevant cell model. […] Using this same model, we compared the covalent inhibitors with non-covalent inhibitor SW2_110A in THP1 cell lines. […] The two optimal inhibitors P1bP and P2 were subsequently tested for dose-dependency in this cellular assay. Dose curves indicate that these covalent inhibitors have 30 to 100-fold improvement of cellular activity compared to the non-covalent inhibitor (FIG. 15B).

[2] = Stability of cyclic imine inhibitor P1b; type: physicochemical
Protocol: The sample was split, and one portion was further reduced with sodium cyanoborohydride. LC/MS: UV traces, low resolution mass spectrum. […] Stability was similarly assayed with 24-hour incubation in either 100 mM HCl or 100 mM NaOH.

[3] = biological target: T1, wild-type CBX8 chromodomain (Homo sapiens, UniProt Q9HC52); assay: Time-dependent fluorescence polarization displacement assay, CBX8; type: binding; details: for time-dependent change of potency (IC50): further incubation; for IC50 without additional incubation time (in words): no additional incubation
T1 construct: recombinant CBX8 chromodomain (ChD)
T1 sequence (Q9HC52 11-69 limits assumed): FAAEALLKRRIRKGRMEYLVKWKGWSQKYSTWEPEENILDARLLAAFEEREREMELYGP
Protocol: (A) The fraction of labeled protein as determined by UV integration on reverse phase HPLC. CBX8 ChD and P2 were incubated at 10 μM each for 16 hours at 37° C. UV absorption measured at 215 nm. (B) Mass spectra of CBX8 ChD treated overnight with inhibitor P2 (top, red) and control CBX8 ChD (bottom, green). […] (C) Time dependent fluorescence polarization displacement assays of indicated chromodomains with P2. Assays were conducted using SW2_123 as an FP probe (FIG. S15) at 100 nM. All proteins were used at 2 μM in PBS (pH 7), 0.02% Tween 20. Error bars represent s.d.
A fluorescence polarization (FP) displacement assay was used to evaluate the covalent binding of cyclic imine warhead containing inhibitors.
To validate labeling of the targeted tyrosine residue (Y39), this amino acid was mutated to phenylalanine, which is structurally similar but lacks reactivity to the cyclic imine.

mutant CBX8 (Y39F) = biological target: T2, mutant CBX8 (Y39F) (Homo sapiens, UniProt Q9HC52, Y39F); assay: Time-dependent fluorescence polarization displacement assay, CBX8 Y39F; type: binding
T2 construct: Time dependent fluorescence polarization displacement assays of indicated chromodomains with P2
T2 sequence (Q9HC52 11-69 Y39F limits assumed): T1 sequence (Q9HC52 11-69 limits assumed) with Y29F
Protocol: (A) The fraction of labeled protein as determined by UV integration on reverse phase HPLC. CBX8 ChD and P2 were incubated at 10 μM each for 16 hours at 37° C. UV absorption measured at 215 nm. (B) Mass spectra of CBX8 ChD treated overnight with inhibitor P2 (top, red) and control CBX8 ChD (bottom, green). Observed masses are shown (expected average mass for CBX8 ChD=8792 Da). The observed mass difference (895 Da) corresponds to the expected mass change of 901 Da. (C) Time dependent fluorescence polarization displacement assays of indicated chromodomains with P2. Assays were conducted using SW2_123 as an FP probe (FIG. S15) at 100 nM. All proteins were used at 2 μM in PBS (pH 7), 0.02% Tween 20. Error bars represent s.d.
To validate labeling of the targeted tyrosine residue (Y39), this amino acid was mutated to phenylalanine, which is structurally similar but lacks reactivity to the cyclic imine. […] Similarly, for CBX2 ChD, no change in apparent affinity was observed over time in the FP assay (FIG. 13C), and no labeled protein was detected by MS.

[4] = tested on: CBX8 binding to chromatin; CBX8-mediated gene expression; details: MLL-AF9 transformed leukemia; cited from earlier work
endogenous CBX8 = biological target: T3, endogenous CBX8 (Homo sapiens, UniProt Q9HC52); assay: In-gel fluorescence labeling in HEK293T cell lysates; type: binding; details: ~20 μM, 20 eq competitor with P2
T3 sequence (Q9HC52 1-389): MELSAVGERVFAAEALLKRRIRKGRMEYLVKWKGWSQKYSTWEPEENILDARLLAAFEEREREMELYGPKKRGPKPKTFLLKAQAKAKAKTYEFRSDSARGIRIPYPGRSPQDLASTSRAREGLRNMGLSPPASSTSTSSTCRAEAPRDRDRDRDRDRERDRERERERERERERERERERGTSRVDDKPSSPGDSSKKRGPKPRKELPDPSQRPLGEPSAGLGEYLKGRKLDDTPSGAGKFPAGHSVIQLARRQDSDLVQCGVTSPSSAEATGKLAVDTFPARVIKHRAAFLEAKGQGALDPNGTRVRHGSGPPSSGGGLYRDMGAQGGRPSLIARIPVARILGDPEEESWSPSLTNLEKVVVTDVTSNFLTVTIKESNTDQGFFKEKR
Protocol: After incubation of the inhibitor P2 at 1 μM in HEK293T cell lysates for 1 h at 37° C., click chemistry was conducted to conjugate TAMRA-azide to the C-terminal alkyne of P2 prior to SDS-PAGE.

CBX8 ChD = biological target: T4, CBX8 ChD (Homo sapiens, UniProt Q9HC52); details: cited from earlier work
T4 construct: recombinant CBX8 chromodomain (ChD)
T4 sequence (Q9HC52 11-69 limits assumed): T1 sequence (Q9HC52 11-69 limits assumed)

degradation ([2]; 100 mM HCl, 100 mM NaOH and neutral PBS, 96 h, room temperature) | conversion of imine to amine on NaBH3CN after 24-hour incubation in PBS ([2]; 24 h PBS, then sodium cyanoborohydride (10 eq.)) | time-dependent change of potency (IC50) [3] | IC50 without additional incubation time (in words) [3] | IC50 (mutant CBX8 (Y39F)) [µM] | effect on P2 protein labeling on co-incubation (endogenous CBX8) | SMILES | reduction of HOXA9 gene expression, 10 μM P1b vs 100 μM SW2_110A ([1]; 10 μM P1b vs 100 μM SW2_110A) | reduction of HOXA9 expression versus non-covalent inhibitor ([1]; THP1, 48 h, vs SW2_110A) | CBX8-mediated gene expression [4] | inhibition of CBX8 binding to chromatin [4] | selectivity over CBX2 (CBX8 ChD; CBX8 over CBX2) [fold] | Kd (CBX8 ChD) [µM] | selectivity for CBX8 over CBX4, CBX6, and CBX7 (CBX8 ChD; in words)
no significant degradation | full conversion of imine to amine | time-dependent increase of potency | comparable IC50 values | 7.3 |  | CC[C@H](C)[C@H](NC(=O)[C@@H](NC(=O)c1ccc(Oc2ccccc2)cc1)C1CCCC1)C(=O)N[C@@H](CCCCN(CC)CCCCCCN1CCN=CC1=O)C(=O)N[C@@H](CO)C(N)=O [Compound P1b] | reduced gene expression to a similar extent as 100 μM SW2_110A | most effective at reducing HOXA9 gene expression |  |  |  |  | 
 |  | did not | comparable IC50 values |  | protein labeling was reduced | CC[C@H](C)[C@H](NC(=O)[C@@H](NC(=O)c1ccc(Oc2ccccc2)cc1)C1CCCC1)C(=O)N[C@@H](CCCCN(CC)CC)C(=O)N[C@@H](CO)C(N)=O [SW2_110A] ({Benzoyl(4-OPh)}-[Gly(cPent)]I[Lys(Et2)]S-NH2) |  |  | reduces CBX8-mediated gene expression | inhibits CBX8 binding to chromatin | 6 | 0.8 | high selectivity
